Assays:
LXRβ = biological target: T1, LXRβ (Homo sapiens, UniProt P55055); assay: LXRβ reporter gene assay in HEK293; type: cell-based; details: read-out: LXRβ antagonistic activity (IC50)
T1 construct: CMX-GAL4N-hLXRβ-LBD; expressed in transfected cells; host or cells: HEK293
T1 sequence (P55055 222-460 limits assumed): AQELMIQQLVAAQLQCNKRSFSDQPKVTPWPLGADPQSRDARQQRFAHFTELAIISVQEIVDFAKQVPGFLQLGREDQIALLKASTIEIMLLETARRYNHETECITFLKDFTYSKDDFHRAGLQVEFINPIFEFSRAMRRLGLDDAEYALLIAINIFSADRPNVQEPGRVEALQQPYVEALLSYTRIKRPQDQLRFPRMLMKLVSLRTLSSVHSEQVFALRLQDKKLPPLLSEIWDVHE

LXRα = biological target: T2, LXRα (Homo sapiens, UniProt Q13133); assay: LXRα reporter gene assay in HEK293; type: cell-based; details: read-out: LXRα antagonistic activity (IC50)
T2 construct: CMX-GAL4N-hLXRα-LBD; expressed in transfected cells; host or cells: HEK293
T2 sequence (Q13133 209-447 limits assumed): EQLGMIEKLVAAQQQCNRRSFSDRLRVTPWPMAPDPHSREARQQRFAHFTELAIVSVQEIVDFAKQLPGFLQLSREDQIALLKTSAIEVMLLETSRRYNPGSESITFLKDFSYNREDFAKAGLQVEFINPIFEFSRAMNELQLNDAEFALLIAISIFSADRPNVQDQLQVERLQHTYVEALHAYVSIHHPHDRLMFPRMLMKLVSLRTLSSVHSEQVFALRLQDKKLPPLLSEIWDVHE

RORα = biological target: T3, RORα (Homo sapiens, UniProt P35398); details: reporter gene assay, HEK293; read-out: RORα inverse agonistic activity (IC50); cited from earlier work
T3 construct: expressed in transfected cells; host or cells: HEK293
T3 sequence (P35398 1-523): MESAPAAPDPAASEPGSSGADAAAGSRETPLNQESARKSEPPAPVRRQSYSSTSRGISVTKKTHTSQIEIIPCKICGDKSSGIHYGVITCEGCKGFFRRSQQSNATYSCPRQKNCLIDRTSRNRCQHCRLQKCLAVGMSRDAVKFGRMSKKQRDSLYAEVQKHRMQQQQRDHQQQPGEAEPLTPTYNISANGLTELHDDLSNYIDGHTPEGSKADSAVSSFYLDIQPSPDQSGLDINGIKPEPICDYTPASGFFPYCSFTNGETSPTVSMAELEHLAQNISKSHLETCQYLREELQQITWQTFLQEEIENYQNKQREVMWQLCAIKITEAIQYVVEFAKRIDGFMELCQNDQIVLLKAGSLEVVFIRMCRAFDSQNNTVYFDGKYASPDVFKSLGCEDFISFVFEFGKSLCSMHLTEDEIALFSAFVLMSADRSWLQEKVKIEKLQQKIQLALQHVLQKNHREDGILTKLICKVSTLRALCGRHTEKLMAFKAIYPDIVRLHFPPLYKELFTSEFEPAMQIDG

PR = biological target: T4, PR (Homo sapiens, UniProt P06401); details: cited from earlier work; for IC50: alkaline phosphatase, T47D cells, progesterone 1 nM, read-out: PR antagonistic activity (IC50)
T4 sequence (P06401 1-933): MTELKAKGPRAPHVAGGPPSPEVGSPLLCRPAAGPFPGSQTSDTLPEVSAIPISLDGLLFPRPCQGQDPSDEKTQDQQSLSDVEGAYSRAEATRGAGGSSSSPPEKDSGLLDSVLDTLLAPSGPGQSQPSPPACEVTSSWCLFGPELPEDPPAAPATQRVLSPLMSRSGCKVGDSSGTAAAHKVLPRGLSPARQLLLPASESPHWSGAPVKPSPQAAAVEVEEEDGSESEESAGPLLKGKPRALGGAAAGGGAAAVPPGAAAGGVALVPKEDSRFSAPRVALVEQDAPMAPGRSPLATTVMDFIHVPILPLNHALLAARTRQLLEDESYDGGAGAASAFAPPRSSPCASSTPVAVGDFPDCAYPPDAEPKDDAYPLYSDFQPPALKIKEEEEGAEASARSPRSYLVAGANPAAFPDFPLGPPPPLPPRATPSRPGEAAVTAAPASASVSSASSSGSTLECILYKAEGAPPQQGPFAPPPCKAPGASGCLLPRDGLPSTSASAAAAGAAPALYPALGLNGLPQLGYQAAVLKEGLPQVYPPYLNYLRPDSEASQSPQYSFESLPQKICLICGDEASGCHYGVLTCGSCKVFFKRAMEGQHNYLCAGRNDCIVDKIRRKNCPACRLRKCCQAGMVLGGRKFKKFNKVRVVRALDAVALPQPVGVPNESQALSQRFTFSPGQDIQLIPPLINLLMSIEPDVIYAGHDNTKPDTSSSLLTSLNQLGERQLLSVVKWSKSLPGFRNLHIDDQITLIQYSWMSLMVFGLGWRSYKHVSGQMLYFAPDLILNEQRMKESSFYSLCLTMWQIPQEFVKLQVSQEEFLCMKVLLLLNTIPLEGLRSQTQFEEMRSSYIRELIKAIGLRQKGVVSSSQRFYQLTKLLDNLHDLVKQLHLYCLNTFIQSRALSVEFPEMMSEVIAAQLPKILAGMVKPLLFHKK

[1] = system: LNCaP cells (T877A mutation in the AR LBD); assay: PSA level (ELISA) in LNCaP cell line; type: cell-based, human; details: for IC50: Homo sapiens, LNCaP, dihydrotestosterone 10 nM, 48 h, ± SEM
Excerpt: Chronic administration of AR antagonists often leads to the development of resistance. […] In contrast, another AR antagonist, enzalutamide, was reported to antagonize AR mutant T877A [23]. Thus, development of a novel chemical class of AR antagonists, different from flutamide analogs seems an attractive approach for the treatment of AR antagonist-resistant cancer, providing further motivation to evaluate steroid surrogates. Therefore, we investigated the antiandrogenic activity of several potent AR antagonists by means of PSA (prostate-specific antigen, an AR-regulated gene) ELISA (enzyme-linked immunosorbent assay) in human prostate cancer cell line LNCaP, which has T877A mutation in the AR LBD.
The human prostate cancer cell line LNCaP (ECACC, London, UK) was routinely maintained in RPMI1640 containing 10% (v/v) fetal bovine serum, and penicillin/streptomycin at 37 °C in a humidified atmosphere of 5% CO2 in air. Cells were cultured in RPMI1640 without phenol red containing 10% (v/v) charcoal-stripped fetal bovine serum, and penicillin/streptomycin at 37 °C in a humidified atmosphere of 5% CO2 in air for 3 days. Then cells were plated in 96-well plates at 1 × 10^4 cells/well and incubated overnight. On the next day, cells were treated with fresh media containing test compound plus dihydrotestosterone (final concentration 10 nM), and incubated for 48 h. Then, PSA levels were measured in the culture supernatants, after 100-fold dilution with the medium, using ELISA (Immunospec Corp., CA, USA Free prostate-specific antigen cat. #E29-212) according to the manufacturer’s instructions. All data points were carried out twice in triplicate.

Row | SMILES | IC50 (LXRβ) [µM] | IC50 (LXRα) [µM] | IC50 [1] [µM] | IC50 (RORα) [µM] | enhanced PR activity compared with unsubstituted analog 12 (PR) | IC50 (PR) [µM] | antiandrogenic activity in LNCaP [1]
1 | CCCCn1c(=O)c2ccccc2c2ccccc21 [Compound 7] | 15 | 19 |  | 10 |  |  | 
2 | CCCCn1c(=O)c2ccccc2c2cc(C(C)(C)C)ccc21 [Compound 10] | > 20 | > 20 |  | 12 |  |  | 
3 | CCCCn1c(=O)c2ccccc2c2cc(CO)ccc21 [Compound 11] | > 20 | > 20 |  | > 20 |  |  | 
4 | CCCCCCCCCn1c(=O)c2ccccc2c2cc(C(O)(C(F)(F)F)C(F)(F)F)ccc21 [Compound 17] | > 20 | > 20 |  | > 20 |  |  | 
5 | CCCCn1c(=O)c2ccccc2c2c(OC)c(C(O)(C(F)(F)F)C(F)(F)F)ccc21 [Compound 18] | > 20 | > 20 |  | > 20 |  |  | 
6 | CCCCn1c(=O)c2c(OC)cccc2c2cc(C(O)(C(F)(F)F)C(F)(F)F)ccc21 [Compound 21] | 12 | 11 |  | 12 |  |  | 
7 | CCCCn1c(=O)c2cc(OC)ccc2c2cc(C(O)(C(F)(F)F)C(F)(F)F)ccc21 [Compound 22] | 11 | 12 |  | 12 |  |  | 
8 | CCCCn1c(=O)c2ccccc2c2cc(C(O)(C(F)(F)F)C(F)(F)F)c3c(c21)OCO3 [Compound 26] | > 20 | > 20 | 0.56 ± 0.26 | > 20 |  | 0.23 | 
9 | CCCCn1c(=O)c2cc(OC)ccc2c2cc(C(O)(C(F)(F)F)C(F)(F)F)c(OC)cc21 [Compound 27] | 18 | 17 |  | 9.5 |  | 0.3 | 
10 | CCCCn1c(=O)c2cc(OC)ccc2c2cc(C(O)(C(F)(F)F)C(F)(F)F)cc(OC)c21 [Compound 28] | > 10 | > 10 |  | 11 |  | 0.34 | 
11 | CCCCn1c(=O)c2c(OC)cc(OC)cc2c2cc(C(O)(C(F)(F)F)C(F)(F)F)ccc21 [Compound 30] | > 20 | > 20 |  | > 20 |  | > 20 | 
12 | COc1cc(C(O)(C(F)(F)F)C(F)(F)F)cc2c1[nH]c(=O)c1ccccc12 [Compound 39] | > 20 | > 20 |  | > 20 |  |  | 
13 | CCc1cc(C(O)(C(F)(F)F)C(F)(F)F)cc2c1[nH]c(=O)c1ccccc12 [Compound 41] | > 20 | > 20 |  | > 20 |  |  | 
14 | CCCc1cc(C(O)(C(F)(F)F)C(F)(F)F)cc2c1[nH]c(=O)c1ccccc12 [Compound 42] | 20 | > 20 |  | > 20 |  |  | 
15 | O=c1[nH]c2c(Cl)cc(C(O)(C(F)(F)F)C(F)(F)F)cc2c2ccccc12 [Compound 43, 4-Chloro-2-(1,1,1,3,3,3-hexafluoro-2-hydroxypropan-2-yl)phenanthridin-6(5H)-one] | > 20 | 5.3 | > 10 |  |  |  | did not show antiandrogenic activity

Now those with a lower IC50 (LXRβ), led by results:

Row | IC50 (LXRβ) [µM] | IC50 (LXRα) [µM] | IC50 [1] [µM] | SMILES | IC50 (RORα) [µM] | enhanced PR activity compared with unsubstituted analog 12 (PR) | IC50 (PR) [µM] | antiandrogenic activity in LNCaP [1]
16 | 6.6 | 14 |  | CCn1c(=O)c2ccccc2c2cc(C(O)(C(F)(F)F)C(F)(F)F)ccc21 [Compound 14] | > 20 |  |  | 
17 | 9.2 | 8.4 |  | CCCCn1c(=O)c2ccccc2c2cc(C(O)(C(F)(F)F)C(F)(F)F)c(OC)cc21 [Compound 19] | 8.2 | more than 3 fold |  | 
18 | 5.5 | 6.9 |  | CCCCn1c(=O)c2ccccc2c2cc(C(O)(C(F)(F)F)C(F)(F)F)cc(OC)c21 [Compound 20] | 7.5 | > 2 fold |  | 
19 | 2.4 | 7 |  | CCCCn1c(=O)c2ccc(OC)cc2c2cc(C(O)(C(F)(F)F)C(F)(F)F)ccc21 [Compound 23] | 6.6 |  |  | 
20 | 4.3 | 4.6 |  | CCCCn1c(=O)c2cccc(OC)c2c2cc(C(O)(C(F)(F)F)C(F)(F)F)ccc21 [Compound 24] | 7.7 |  |  | 
21 | 9.6 | 8.5 |  | CCCCn1c(=O)c2ccccc2c2cc(C(O)(C(F)(F)F)C(F)(F)F)c(OC)c(OC)c21 [Compound 25] | > 10 |  | 0.51 | 
22 | 3.2 | 3.2 |  | CCCCn1c(=O)c2c(OC)c(OC)ccc2c2cc(C(O)(C(F)(F)F)C(F)(F)F)ccc21 [Compound 29] | 7.3 |  | 4.2 | 
23 | 8.9 | 8.8 |  | CCCCn1c(=O)c2cc(OC)c(OC)cc2c2cc(C(O)(C(F)(F)F)C(F)(F)F)ccc21 [Compound 31] | 18 |  | 9.6 | 
24 | 4.6 | 3.1 | 0.49 ± 0.26 | O=c1[nH]c2c(F)cc(C(O)(C(F)(F)F)C(F)(F)F)cc2c2ccccc12 [Compound 32] | 15 |  |  | 
25 | 3.1 | 3.1 | 0.19 ± 0.095 | O=c1[nH]c2ccc(C(O)(C(F)(F)F)C(F)(F)F)cc2c2cccc(F)c12 [Compound 33] | 7.9 |  |  | 
26 | 6 | 7.9 | > 10 | O=c1[nH]c2ccc(C(O)(C(F)(F)F)C(F)(F)F)cc2c2ccc(F)cc12 [Compound 34] | 17 |  |  | 
27 | 5.4 | 6.4 | 0.55 ± 0.11 | O=c1[nH]c2ccc(C(O)(C(F)(F)F)C(F)(F)F)cc2c2cc(F)ccc12 [Compound 35] | 9.8 |  |  | 

Source: publication PMC6073568, “Efficient Lead Finding, Activity Enhancement and Preliminary Selectivity Control of Nuclear Receptor Ligands Bearing a Phenanthridinone Skeleton” (International Journal of Molecular Sciences, 2018)
